Assay results as given in patent publication US20080300317A1 (Chevron U.S.A. Inc., priority 2007, published 2008).
Where a name gives a salt, the structure may show the parent alone. Read-outs that look alike come from different tables or passages of the source.

Experiments:
[1] = system: 3 strains of influenza A virus and one strain of influenza B virus; format: cell-based; settings: Vero cells; screening at 50, 10, 5 and 1 μM; all four influenza strains
[2] = system: influenza A/HK/8/68 (H3N2); assay: microbe, parasite or virus in culture; format: cell-based, influenza A virus
Vero cells = settings: Table 3, MDT compounds, No Tox. = no cytotoxicity measured
influenza B/GL/1739/54 = assay: Anti-viral EC50 experiment, survival of virus-infected Vero cells; format: cell-based, influenza B virus; settings: for EC50 Virus B/GL/1739/54: Table 3, Vero cells, n at least 2, No effic. = no efficacy measured
Procedure: The following MDT compounds were tested: MDT-1, MDT-3, MDT-10, MDT-11, MDT-12, MDT-13, MDT-14, MDT-15, MDT-16, MDT-22, MDT-23, MDT-24, MDT-26, MDT-27, MDT-28, MDT-29, MDT-30, MDT-31, MDT-32, MDT-33, MDT-34, MDT-40, MDT-41, MDT-42, MDT-43, MDT-44, MDT-45, MDT-46, MDT-47, MDT-48, MDT-49, MDT-50, MDT-51, MDT-53, MDT-56, MDT-57, MDT-58, MDT-59, MDT-60, MDT-61, MDT-62, MDT-63, MDT-65, MDT-67, MDT-68 and MDT-69. […] Amantadine and rimantadine are both adamantane derivatives.
Compound diluents were dimethyl sulfoxide (DMSO), Molecusol ((2-hydroxypropyl)-β-cyclodextrin; Sigma H107), propylene-glycol (PG) and deionized water. Diluents were used singly or in combination as necessary to dissolve the compounds.
The medium used for the cell lines was 1× Minimal Essential Medium (MEM) (Invitrogen) supplemented with 1% L-glutamine, 1% penicillin-streptomycin, 0.125% bovine serum albumin (BSA), and 1 μg/ml of TPCK-trypsin.
The viruses tested were influenza A/PR/8/34 (H1N1), influenza A/WS/33 (H1N1), influenza A/HK/8/68 (H3N2) and influenza B/GL/1739/54 (no H, N subtyping). Cells used were the Vero line of African green monkey, normal kidney cells. All viruses and cells were obtained from The American Type Culture Collection (Rockville, Md.). Cells were grown in an atmosphere of 4-6% CO2 at 34-38° C. in MEM with 5% fetal bovine serum (FBS), 2 mM glutamine, and 1% penicillin-streptomycin solution to maintain exponential growth.
The Vero cells were plated on Day 0. On Day 1, cells were infected with virus and incubated with various concentrations of test compounds. […] On Day 4 the cells were fixed and stained. […] Cell survival due to exposure to test compound was indicative of anti-viral activity.

[3] = system: influenza A/PR/8/34 (H1N1); assay: microbe, parasite or virus in culture; format: cell-based, influenza A virus
influenza A/WS/33 (H1N1) = assay: microbe, parasite or virus in culture; format: cell-based, influenza A virus
[4] = Table 3, Vero cells, H3N2, n at least 2, No effic. = no efficacy measured, read-out: EC50 Virus A/HK/8/68
[5] = Table 3, Vero cells, H1N1, n at least 2, No effic. = no efficacy measured
[6] = Table 3, Vero cells, H3N2, n at least 2, No effic. = no efficacy measured
[7] = Table 3, Vero cells, H1N1, n at least 2, No effic. = no efficacy measured, read-out: EC50 Virus A/PR/8/34
[8] = Table 3, Vero cells, H1N1, n at least 2, No effic. = no efficacy measured, read-out: EC50 Virus A/WS/33
[9] = Influenza A virus, Table 3, Vero cells, H1N1, n at least 2, No effic. = no efficacy measured

O=C1C2CC3C4CC5CC3C1C(C5)C4C2 [MDT-59, 3-diamantanone]
anti-viral activity under the conditions tested [1]: did not exhibit anti-viral activity

CC(N)C12CC3CC4C5CC(CC41)CC2C5C3 (centres unmarked) [MDT-57, 1-(1-aminoethyl)diamantane]
EC50 [2, 4]: 160 nM
Cytotoxicity (Vero cells): 50 or above μM
EC50 Virus B/GL/1739/54 (influenza B/GL/1739/54): No Effic.
EC50 Virus A/PR/8/34 [3, 5]: No Effic.
EC50 Virus A/WS/33 (influenza A/WS/33 (H1N1); [5]): No Effic.

3-aminotriamantane [MDT-48]
anti-viral activity under the conditions tested [1]: did not exhibit anti-viral activity

CC12CC3CC4C1CC1CC2C(N)(C3)C4(C)C1 (centres unmarked) [MDT-43, 1,6-dimethyl-2-aminodiamantane]
EC50 Virus A/HK/8/68 [2, 6]: No Effic.
Cytotoxicity (Vero cells): 10 or above μM
EC50 Virus B/GL/1739/54 (influenza B/GL/1739/54): No Effic.
EC50 [3, 7]: 60 nM
EC50 (influenza A/WS/33 (H1N1); [8]): 820 nM

CC12CC3CC4C5CC(CC41)CC2(N)C5C3 (centres unmarked) [MDT-30, 1-amino-12-methyldiamantane]
anti-viral activity under the conditions tested [1]: did not exhibit anti-viral activity

NCC12CC3C4CC5CC3C(C1)C(C5)C4C2 [MDT-61, 4-diamantanemethylamine]
EC50 [2, 4]: 100 nM
Cytotoxicity (Vero cells): 50 or above μM
EC50 Virus B/GL/1739/54 (influenza B/GL/1739/54): No Effic.
EC50 Virus A/PR/8/34 [3, 5]: No Effic.
EC50 Virus A/WS/33 (influenza A/WS/33 (H1N1); [5]): No Effic.

CC12CC3(N)CC4C5CC(CC41)CC2C5C3 [MDT-22, 2-methyl-4-aminodiamantane]
anti-viral activity under the conditions tested [1]: did not exhibit anti-viral activity

OC12CC3CC4C1CC1C5CC6CC1C2C(C6)(C3)C54 (centres unmarked) [MDT-41, 3-hydroxytriamantane]
EC50 Virus A/HK/8/68 [2, 6]: No Effic.
Cytotoxicity (Vero cells): No Tox.
EC50 Virus B/GL/1739/54 (influenza B/GL/1739/54): No Effic.
EC50 [3, 9]: 610 nM
EC50 (influenza A/WS/33 (H1N1); [9]): 5500 nM

CC(N)C12CC3C4CC5CC3C(C1)C(C5)C4C2 (centres unmarked) [MDT-62, 4-(1-aminoethyl)diamantane]
EC50 Virus A/HK/8/68 [2, 6]: No Effic.
Cytotoxicity (Vero cells): 50 or above μM
EC50 Virus B/GL/1739/54 (influenza B/GL/1739/54): No Effic.
EC50 [3, 7]: 280 nM
EC50 (influenza A/WS/33 (H1N1); [8]): 1940 nM

OC12CC3CC4C1CC1CC4C(O)(C3)C2C1 [MDT-13, 1,7-dihydroxydiamantane]
anti-viral activity under the conditions tested [1]: did not exhibit anti-viral activity

OC12CC3CC4C5CC(CC41)CC2C5C3 [MDT-10, 1-hydroxydiamantane]
anti-viral activity under the conditions tested [1]: did not exhibit anti-viral activity

CC12CC3C4CC5(C)CC3C(C1)C(N)(C5)C4C2 [MDT-51, 4,9-dimethyl-1-aminodiamantane]
anti-viral activity under the conditions tested [1]: did not exhibit anti-viral activity

CC12CC3C4CC5CC3C(C1)C(C5)C4C2 [MDT-60, 4-methyldiamantane]
anti-viral activity under the conditions tested [1]: did not exhibit anti-viral activity

CC12CC3(N)CC4C5CC(N)(CC41)CC2C5C3 [MDT-28, 1-methyl-4,9-diaminodiamantane]
anti-viral activity under the conditions tested [1]: did not exhibit anti-viral activity

CC12CC3CC4C1CC1(C(=O)O)CC2C(C3)C4(C)C1 [MDT-46, 1,6-dimethyl-4-diamantanecarboxylic acid]
EC50 Virus A/HK/8/68 [2, 6]: No Effic.
Cytotoxicity (Vero cells): No Tox.
EC50 Virus B/GL/1739/54 (influenza B/GL/1739/54): No Effic.
EC50 [3, 7]: < 125 nM
EC50 (influenza A/WS/33 (H1N1); [8]): < 125 nM

OC12CC3CC4C1CC1CC2C(C3)C4(O)C1 [MDT-12, 1,6-dihydroxydiamantane]
anti-viral activity under the conditions tested [1]: did not exhibit anti-viral activity

CC12CC3CC4C1CC1(O)CC2C(C3)C4(C)C1 [MDT-45, 1,6-dimethyl-4-hydroxydiamantane]
EC50 Virus A/HK/8/68 [2, 6]: No Effic.
Cytotoxicity (Vero cells): No Tox.
EC50 Virus B/GL/1739/54 (influenza B/GL/1739/54): No Effic.
EC50 [3, 7]: 20 nM
EC50 (influenza A/WS/33 (H1N1); [8]): 300 nM

NC12CC3CC(CC(C3)C1)C2 [Amantadine, 1-aminoadamantane hydrochloride, reference compound]
EC50 ([2]; Influenza A virus, H3N2, Vero, Table 4, controls, cutoff control values compiled through many experiments): ≤ 1000 nM
EC50 (influenza B/GL/1739/54; Influenza B virus, Vero, Table 4, controls, cutoff control values, determined over only 2 experiments): ≥ 20000 nM
EC50 ([3]; Influenza A virus, Vero, Table 4, controls, cutoff control values compiled through many experiments): ≥ 50000 nM
EC50 (influenza A/WS/33 (H1N1); Influenza A virus, H1N1, Vero, Table 4, controls, cutoff control values compiled through many experiments): ≥ 10000 nM

CC12CC3C4CC5(C)CC3C(C1)C(O)(C5)C4C2 [MDT-47, 4,9-dimethyl-1-hydroxydiamantane]
EC50 Virus A/HK/8/68 [2, 6]: No Effic.
Cytotoxicity (Vero cells): No Tox.
EC50 Virus B/GL/1739/54 (influenza B/GL/1739/54): No Effic.
EC50 [3, 7]: < 125 nM
EC50 (influenza A/WS/33 (H1N1); [8]): 460 nM

CC12CC3C4CC5(C)CC(C(C1)C3(N)C5)C4(N)C2 [MDT-53, 4,9-dimethyl-1,6-diaminodiamantane]
anti-viral activity under the conditions tested [1]: did not exhibit anti-viral activity

CC12CC3CC4C1CC1(N)CC2C(C3)C4(C)C1 [MDT-23, 1,6-dimethyl-4-aminodiamantane]
anti-viral activity under the conditions tested [1]: did not exhibit anti-viral activity

CC12CC3CC4C1CC1(CN)CC2C(C3)C4(C)C1 [MDT-65, 1,6-dimethyl-4-diamantanemethyleneamine]
anti-viral activity under the conditions tested [1]: did not exhibit anti-viral activity

OC12CC3C4CC5C6CC7(O)CC5C(C4C1)C(C2)(C7)C36 [MDT-15, 9,15-dihydroxytriamantane]
anti-viral activity under the conditions tested [1]: did not exhibit anti-viral activity

OC12CC3C4CC5(O)CC3C(C1)C(C5)C4C2 [MDT-14, 4,9-dihydroxydiamantane]
anti-viral activity under the conditions tested [1]: did not exhibit anti-viral activity

NC12CC3CC4C5CC(CC41)CC2C5C3 [MDT-1, 1-aminodiamantane]
anti-viral activity under the conditions tested [1]: did not exhibit anti-viral activity

CC(N)C12CC3C4CC5CC(C(C1)C3(C)C5)C4(C)C2 (centres unmarked) [MDT-68, 1,6-dimethyl-4-diamantane-4′-methyl-methyleneamine]
anti-viral activity under the conditions tested [1]: did not exhibit anti-viral activity

CC(N)C12CC3(C)CC4C5CC(C)(CC41)CC2C5C3 (centres unmarked) [MDT-67, 4,9-dimethyl-1-diamantane-1′-methyl-methyleneamine]
anti-viral activity under the conditions tested [1]: did not exhibit anti-viral activity

CC12CC3CC4C1CC1(N)CC2C(C3)C4(C)C1 [MDT-33, 1,6-dimethyl-4-aminodiamantane]
anti-viral activity under the conditions tested [1]: did not exhibit anti-viral activity

CC12CC3C4CC5(C)CC3C(C1)C(CN)(C5)C4C2 [MDT-63, 4,9-dimethyl-1-diamantanemethyleneamine]
anti-viral activity under the conditions tested [1]: did not exhibit anti-viral activity

9-aminotriamantane [MDT-49]
anti-viral activity under the conditions tested [1]: did not exhibit anti-viral activity

CC12CC3CC4C1CC1(N)CC2C(C3)C4(N)C1 [MDT-29, 1-methyl-4,6-diaminodiamantane]
anti-viral activity under the conditions tested [1]: did not exhibit anti-viral activity

NCC12CC3CC4C5CC(CC41)CC2C5C3 [MDT-56, 1-diamantanemethylamine]
anti-viral activity under the conditions tested [1]: did not exhibit anti-viral activity

OC12CC3C4CC5CC3C(C1)C(C5)C4C2 [MDT-11, 4-hydroxydiamantane]
anti-viral activity under the conditions tested [1]: did not exhibit anti-viral activity
